These are literature values, as cited in US7354906B2, “Composition of anti-HIV drugs and anti-cortisol compounds and method for decreasing the side effects of anti-HIV drugs in a human” (Samaritan Pharmaceuticals, Inc., priority 1999, dated 2008).

For series [1] the following is noted: hydrochloride salt.
The conditions of series [2]: AZT recipients.
The conditions of series [3]: 50 mg per day for 6 months, age advanced humans.
For series [4] the following is noted: human, 20 mg/kg/day, four weeks, no increase in caloric intake.

As for `CCN(CC)CCOC(=O)c1ccc(N)cc1.Cl` [Procaine hydrochloride, 2-diethylaminoethyl p-aminobenzoate hydrochloride], the solubility result in series [1] is “soluble in water and alcohol, but much less soluble in organic solvents”. Consider `Cc1cn([C@H]2C[C@H](N=[N+]=[N-])[C@@H](CO)O2)c(=O)[nH]c1=O` [AZT, 3′-azido-3′-deoxythymidine], for which the “recipients who develop anemia” value in series [2] was 24%. On to `C[C@]12CC[C@H](O)CC1=CC[C@@H]1[C@@H]2CC[C@]2(C)C(=O)CC[C@@H]12` [DHEA, Dehydroepiandrosterone], for which, in series [3], the “bioavailable IGF-1” value was “induced an increase”. Further, the “safety of DHEA dosages” value (dosages as high as 1.6 gm/day) is “safe and without side effects”. For the same compound, where the note is “men, 1600 mg/day for 28 days”, the “mean serum total cholesterol levels” value is “fall”. Moreover, the “mean percent body fat decrease” value (men, 1600 mg/day for 28 days, no change in weight) was 31%.

Turning to `CC(C)Oc1ccc2c(=O)c(-c3ccccc3)coc2c1` [Ipriflavone, 7-isoproxy-isoflavone], in series [4], the “increase in body weight” value is listed as “about 5 pounds”.
